For four compounds, IC50 results are on record in patent publication US20070173488A1, “Pyrazolothiazole Protein Kinase Modulators” (SGX Pharmaceuticals, Inc., priority 2005, published 2007).

pIC50: −log10 of the molar value. Where only a bound is given, the exact number is not on record here.

The target of this test is Met (Homo sapiens, UniProt P08581). Put plainly: Met phosphorylation assay in GTL16 cells. The class given is cell-based. The arrangement: endogenous in cells; host or cells: GTL16 cells. Conditions: compound 1 hour, anti-Phospho-Met (Tyr1234/1235), read-out: Met Phosp. As to the method:
GTL16 cells were maintained in DMEM Medium supplemented with 10% fetal bovine serum (FBS) 2 mM L-Glutamine and 100 units penicillin/100 μg streptomycin, at 37° C. in 5% CO2.
Compounds were tested in the following assays in duplicate.
Met phosphorylation assay: GTL16 cells were plated out at […] cells per 60×15 mm dish (Falcon) in 3 mL of assay media. The following day compound at various concentrations were added in assay media and incubated for 1 hour at 37° C. 5% CO2. After 1 hour the media was aspirated, and the cells were washed once with 1×PBS. The PBS was aspirated and the cells were harvested in 100 μL of modified RIPA lysis buffer (Tris.Cl pH 7.4, 1% NP-40, 5 mM EDTA, 5 mM NaPP, 5 mM NaF, 150 mM NaCl, Protease inhibitor cocktail (Sigma), 1 mM PMSF, 2 mM NaVO4) and transferred to a 1.7 mL eppendorf tube and incubated on ice for 15 minutes. After lysis, the tubes were centrifuged (10 minutes, 14,000 g, 4° C.). Lysates were then transferred to a fresh eppendorf tube. The samples were diluted 1:2 (250,000 cells/tube) with 2×SDS PAGE loading buffer and heated for 5 minutes at 98° C. The lysates were separated on a NuPage 4-12% Bis-Tris Gel 1.0 mm×12 well (Invitrogen), at 200V, 400 mA for approximately 40 minutes. The samples were then transferred to a 0.45 micron Nitrocellulose membrane Filter Paper Sandwich (Invitrogen) for 1 hour at 75V, 400 mA. After transferring, the membranes were placed in blocking buffer for 1 hour at room temperature with gentle rocking. The blocking buffer was removed and a 1:500 dilution of anti-Phospho-Met (Tyr1234/1235) antibody (Cell Signaling Technologies Cat. # 3126L) in 5% BSA, 0.05% Tween 20 in 1×PBS was added and the blots were incubated overnight at room temperature. The following day the blots were washed three times with 1×PBS, 0.1% Tween20. A 1:3000 dilution of HRP conjugated goat anti-rabbit antibody (Jackson ImmunoResearch Laboratories Cat. # 111-035-003) in blocking buffer, was added and incubated for 1 hr at room temperature with gentle rocking. The blot was wash 3 times in PBS, 0.1% Tween20 and visualized by chemiluminescence with SuperSignal West Pico Chemiluminescent Substrate (Pierce #34078).

Chain of Met (P08581 25-1390): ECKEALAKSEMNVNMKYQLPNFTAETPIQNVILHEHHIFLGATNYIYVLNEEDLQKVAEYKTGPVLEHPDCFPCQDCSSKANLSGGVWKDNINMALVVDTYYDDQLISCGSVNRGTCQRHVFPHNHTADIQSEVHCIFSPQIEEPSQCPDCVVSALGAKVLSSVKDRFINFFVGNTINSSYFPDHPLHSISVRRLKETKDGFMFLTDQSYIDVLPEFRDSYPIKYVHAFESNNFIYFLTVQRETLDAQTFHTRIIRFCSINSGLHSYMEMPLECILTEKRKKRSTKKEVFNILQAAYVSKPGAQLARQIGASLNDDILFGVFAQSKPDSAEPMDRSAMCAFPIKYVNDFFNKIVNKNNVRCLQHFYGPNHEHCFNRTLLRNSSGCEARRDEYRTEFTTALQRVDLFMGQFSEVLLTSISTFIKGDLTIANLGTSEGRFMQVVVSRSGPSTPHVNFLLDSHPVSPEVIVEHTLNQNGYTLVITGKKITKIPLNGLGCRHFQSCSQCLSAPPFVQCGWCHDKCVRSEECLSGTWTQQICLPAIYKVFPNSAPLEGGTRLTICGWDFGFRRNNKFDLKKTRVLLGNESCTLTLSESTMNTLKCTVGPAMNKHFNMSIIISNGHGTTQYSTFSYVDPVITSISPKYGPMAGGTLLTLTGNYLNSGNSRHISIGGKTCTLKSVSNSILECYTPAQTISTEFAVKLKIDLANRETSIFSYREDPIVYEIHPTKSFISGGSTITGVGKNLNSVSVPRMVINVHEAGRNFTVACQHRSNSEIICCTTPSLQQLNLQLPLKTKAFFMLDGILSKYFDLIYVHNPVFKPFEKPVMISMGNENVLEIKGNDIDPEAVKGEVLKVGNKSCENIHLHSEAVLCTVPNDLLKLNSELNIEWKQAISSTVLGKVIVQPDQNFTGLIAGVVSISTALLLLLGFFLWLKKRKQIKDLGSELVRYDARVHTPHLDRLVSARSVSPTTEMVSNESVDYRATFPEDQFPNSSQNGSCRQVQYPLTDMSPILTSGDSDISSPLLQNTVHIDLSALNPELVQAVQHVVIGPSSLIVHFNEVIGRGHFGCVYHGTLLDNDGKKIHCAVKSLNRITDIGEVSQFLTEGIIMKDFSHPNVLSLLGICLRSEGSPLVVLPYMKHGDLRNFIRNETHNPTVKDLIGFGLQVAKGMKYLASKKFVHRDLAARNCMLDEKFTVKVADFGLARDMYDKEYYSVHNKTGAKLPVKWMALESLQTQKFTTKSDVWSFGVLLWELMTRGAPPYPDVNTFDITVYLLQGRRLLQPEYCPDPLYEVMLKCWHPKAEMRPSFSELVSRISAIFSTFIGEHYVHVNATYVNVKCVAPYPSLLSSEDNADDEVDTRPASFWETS

Turning to `O=C(Nc1cc[nH]n1)Nc1nc2[nH]nc(-n3cncc3-c3ccccc3Cl)c2s1` [1-{3-[5-(2-Chloro-phenyl)-imidazol-1-yl]-1H-pyrazolo[3,4-d]thiazol-5-yl}-3-(1H-pyrazol-3-yl)-urea], the pIC50 was less than 5.00.

For the compound `O=C(Nc1nc2[nH]nc(-n3cncc3-c3cccc(F)c3F)c2s1)C1CC1` [Cyclopropanecarboxylic acid {3-[5-(2,3-difluoro-phenyl)-imidazol-1-yl]-1H-pyrazolo[3,4-d]thiazol-5-yl}-amide], the pIC50 is less than 5.00.

For the compound `O=C(Nc1nc2[nH]nc(-n3cncc3-c3c(Cl)cccc3Cl)c2s1)C1CC1` [Cyclopropanecarboxylic acid {3-[5-(2,6-dichloro-phenyl)-imidazol-1-yl]-1H-pyrazolo[3,4-d]thiazol-5-yl}-amide], the pIC50 is 5.00 to 6.00.

`O=C(Nc1nc2[nH]nc(-n3cncc3-c3ccccc3Cl)c2s1)C1CC1` [Cyclopropanecarboxylic acid {3-[5-(2-chloro-phenyl)-imidazol-1-yl]-1H-pyrazolo[3,4-d]thiazol-5-yl}-amide]: the pIC50 is 5.00 to 6.00.
